Test results from US20250382268A1, “METHODS AND COMPOSITIONS FOR SELECTIVELY INHIBITING PATHOGENIC MICROBES” (priority 2019, published 2025).
Converted amounts (≈) assume the structure as drawn. Like-named read-outs stand apart in the source and are kept apart here.

How the values were obtained:
N. gonorrhoeae = test: microbe, parasite or virus in culture; format: cell-based; conditions: Neisseria gonorrhoeae, read-out: Neisseria gonorrhoeae WHO 914 MIC, strain WHO 914
Francisella tularensis = test: microbe, parasite or virus in culture; format: cell-based; conditions: read-out: Francisella tularensis NR-577 MIC, strain NR-577
HepG2 cells = test: Cytotoxicity MTT assay in HepG2 cells; format: cell-based; conditions: Homo sapiens
Method: Additionally, the antimicrobial compounds were analyzed for cytotoxicity. […] We utilized the standard MTT assay (Promega CellTiter 96) and GraphPad Prism 7 software to determine EC50 values for each analogue. Briefly, 20,000 HepG2 cells in 200 μl of the ATCC recommended media were seeded in each well of a 96-well plate with a moisture barrier created in the outermost wells. The cells were allowed to attach overnight at 37° C., and then observed under phase contrast microscopy for proper morphological characteristics. […] Once incubations were complete, the spectrophotometric absorbance of the samples was measured at a wavelength of 595 nm. […] For the HepaRG assay, NoSpin HepaRG™ cells (Lonza, cat #NSHPRG) were thawed and plated with 20,000 cells per well. They were allowed to attach for 4 h (optimal DME profile per Lonza's testing) before dosing following the identical protocol as above.

Staphylococcus aureus = test: microbe, parasite or virus in culture
S. aureus = test: SYTOX green cell permeability assay on S. aureus; format: cell-based, Staphylococcus aureus; conditions: concentrations relative to the MIC, FIG. 1A

SMILES | EC50 (HepG2 cells) | further results
Fc1ccc2[nH]cc(Cc3ccc(Br)cc3)c2c1 [Compound 174EB, 3-(4-bromobenzyl)-5-fluoro-1H-indole] | – | MIC (N. gonorrhoeae): 8 µg/mL (≈ 26.3 µM); MIC (Francisella tularensis): 2 µg/mL (≈ 6.58 µM)
Clc1ccc(Sc2c[nH]c3ccc(Br)cc23)cc1 [Compound 174J, 5-bromo-3-((4-chlorophenyl)thio)-1H-indole] | 25.3 µg/mL (≈ 74.7 µM) | –
Brc1cccc(Sc2c[nH]c3ccc(Br)cc23)c1 [Compound 174N, 5-bromo-3-((3-bromophenyl)thio)-1H-indole] | 29.5 µg/mL (≈ 77 µM) | MIC (Staphylococcus aureus; MRSA, read-out: Staphylococcus aureus MIC, MRSA strain HM-467): 3.13 µg/mL (≈ 8.17 µM); MIC (Staphylococcus aureus; MRSA, read-out: Staphylococcus aureus MIC, MRSA strain NK-41886): 3.13 µg/mL (≈ 8.17 µM); MIC (Staphylococcus aureus; MRSA, read-out: Staphylococcus aureus MIC, MRSA strain NR-13533): 3.13 µg/mL (≈ 8.17 µM); MIC (Staphylococcus aureus; MRSA, read-out: Staphylococcus aureus MIC, MRSA strain NR-28983): 3.13 µg/mL (≈ 8.17 µM); MIC (Staphylococcus aureus; MRSA, read-out: Staphylococcus aureus MIC, MRSA strain NR-41875): 3.13 µg/mL (≈ 8.17 µM); MIC (Staphylococcus aureus; MRSA, read-out: Staphylococcus aureus MIC, MRSA strain NR-41876): 3.13 µg/mL (≈ 8.17 µM); MIC (Staphylococcus aureus; MRSA, read-out: Staphylococcus aureus MIC, MRSA strain NR-41877): 3.13 µg/mL (≈ 8.17 µM); MIC (Staphylococcus aureus; MRSA, read-out: Staphylococcus aureus MIC, MRSA strain NR-41878): 3.13 µg/mL (≈ 8.17 µM); MIC (Staphylococcus aureus; read-out: Staphylococcus aureus MIC, VSSA NR-49121): 1.56 µg/mL (≈ 4.07 µM)
Fc1ccc(Sc2c[nH]c3ccc(Br)cc23)cc1 [Compound 174P, 5-bromo-3-((4-fluorophenyl)thio)-1H-indole] | 38.3 µg/mL (≈ 119 µM) | –
Clc1ccc(Sc2c[nH]c3ccc(Br)cc23)c(Cl)c1 [Compound 174V, 5-bromo-3-((2,4-dichlorophenyl)thio)-1H-indole] | 24.8 µg/mL (≈ 66.5 µM) | –
Nc1cc(Br)ccc1Sc1c[nH]c2ccc(Br)cc12 [Compound 174X, 5-bromo-2-((5-bromo-1H-indol-3-yl)thio)aniline] | 30.2 µg/mL (≈ 75.9 µM) | –
Oc1ccccc1Sc1c[nH]c2ccc(C(F)(F)F)cc12 [Compound 177A, 2-((5-(trifluoromethyl)-1H-indol-3-yl)thio)phenol] | 24.1 µg/mL (≈ 77.9 µM) | –
Oc1ccc(Sc2c[nH]c3ccc(C(F)(F)F)cc23)cc1 [Compound 177B, 4-((5-(trifluoromethyl)-1H-indol-3-yl)thio)phenol] | 27.7 µg/mL (≈ 89.6 µM) | –
Nc1ccccc1Sc1c[nH]c2ccc(C(F)(F)F)cc12 [Compound 177C, 2-((5-(trifluoromethyl)-1H-indol-3-yl)thio)aniline] | 48.2 µg/mL (≈ 156 µM) | –
Fc1ccccc1Sc1c[nH]c2ccc(C(F)(F)F)cc12 [Compound 177D, 3-((2-fluorophenyl)thio)-5-(trifluoromethyl)-1H-indole] | 27.1 µg/mL (≈ 87.1 µM) | –
Fc1ccc2[nH]cc(Sc3ccccc3Br)c2c1 [Compound 177E, 3-((2-bromophenyl)thio)-5-fluoro-1H-indole] | 31.6 µg/mL (≈ 98.1 µM) | –
FC(F)(F)c1ccc2[nH]cc(Sc3ccccc3C(F)(F)F)c2c1 [Compound 177F, 5-(trifluoromethyl)-3-((2-(trifluoromethyl)phenyl)thio)-1H-indole] | 29.8 µg/mL (≈ 82.5 µM) | –
CCc1ccccc1Sc1c[nH]c2ccc(C(F)(F)F)cc12 [Compound 177G, 3-((2-ethylphenyl)thio)-5-(trifluoromethyl)-1H-indole] | 29.5 µg/mL (≈ 91.8 µM) | –
OCc1[nH]c2ccc(Br)cc2c1Sc1ccccc1Br [Compound 177H, (5-bromo-3-((2-bromophenyl)thio)-1H-indol-2-yl)methanol] | 31.8 µg/mL (≈ 77 µM) | –
CCc1ccccc1Sc1c(CO)[nH]c2ccc(C(F)(F)F)cc12 [Compound 177I, (3-((2-ethylphenyl)thio)-5-(trifluoromethyl)-1H-indol-2-yl)methanol] | 31.3 µg/mL (≈ 89.1 µM) | –
c1ccc(Oc2c[nH]c3ccccc23)cc1 [Compound 925C, 3-phenoxy-1H-indole] | – | MIC (Francisella tularensis): 8 µg/mL (≈ 38.2 µM)
CC[C@H](C)[C@H](NC(=O)CN)C(=O)NCC(=O)N[C@@H](C)C(=O)N[C@H](C(=O)N[C@@H](CC(C)C)C(=O)N[C@@H](CCCCN)C(=O)N[C@H](C(=O)N[C@@H](CC(C)C)C(=O)N[C@H](C(=O)N[C@H](C(=O)NCC(=O)N[C@@H](CC(C)C)C(=O)N1CCC[C@H]1C(=O)N[C@@H](C)C(=O)N[C@@H](CC(C)C)C(=O)N[C@H](C(=O)N[C@@H](CO)C(=O)N[C@@H](Cc1c[nH]c2ccccc12)C(=O)N[C@H](C(=O)N[C@@H](CCCCN)C(=O)N[C@@H](CCCNC(=N)N)C(=O)N[C@@H](CCCCN)C(=O)N[C@@H](CCCNC(=N)N)C(=O)N[C@@H](CCC(N)=O)C(=O)N[C@@H](CCC(N)=O)C(N)=O)[C@@H](C)CC)[C@@H](C)CC)[C@@H](C)O)[C@@H](C)O)C(C)C)C(C)C [melittin, reference compound] | – | cell permeability by SYTOX green fluorescence (S. aureus): permeabilizes cells
